From ChEMBL document CHEMBL5465560, “Selectivity Literature for EUbOPEN Chemogenomic Library” (2024)
One block for each molecule: values may come before it.

Legend:
[1] = biological target: Tyrosine-protein kinase Fer (Homo sapiens) (UniProt P16591); test: Selectivity interaction (KinaseProfiler screening (Millipore)) EUB0000601a FER; conditions: at 3 µM
[2] = biological target: Glucocorticoid receptor (Homo sapiens) (UniProt P04150); test: Selectivity interaction (Eurofins CEREP Diversity Profile (receptors and ion channels)) EUB0000279b NR3C1; conditions: at 10 µM
Glucocorticoid receptor (Homo sapiens), sequence (P04150 whole entry): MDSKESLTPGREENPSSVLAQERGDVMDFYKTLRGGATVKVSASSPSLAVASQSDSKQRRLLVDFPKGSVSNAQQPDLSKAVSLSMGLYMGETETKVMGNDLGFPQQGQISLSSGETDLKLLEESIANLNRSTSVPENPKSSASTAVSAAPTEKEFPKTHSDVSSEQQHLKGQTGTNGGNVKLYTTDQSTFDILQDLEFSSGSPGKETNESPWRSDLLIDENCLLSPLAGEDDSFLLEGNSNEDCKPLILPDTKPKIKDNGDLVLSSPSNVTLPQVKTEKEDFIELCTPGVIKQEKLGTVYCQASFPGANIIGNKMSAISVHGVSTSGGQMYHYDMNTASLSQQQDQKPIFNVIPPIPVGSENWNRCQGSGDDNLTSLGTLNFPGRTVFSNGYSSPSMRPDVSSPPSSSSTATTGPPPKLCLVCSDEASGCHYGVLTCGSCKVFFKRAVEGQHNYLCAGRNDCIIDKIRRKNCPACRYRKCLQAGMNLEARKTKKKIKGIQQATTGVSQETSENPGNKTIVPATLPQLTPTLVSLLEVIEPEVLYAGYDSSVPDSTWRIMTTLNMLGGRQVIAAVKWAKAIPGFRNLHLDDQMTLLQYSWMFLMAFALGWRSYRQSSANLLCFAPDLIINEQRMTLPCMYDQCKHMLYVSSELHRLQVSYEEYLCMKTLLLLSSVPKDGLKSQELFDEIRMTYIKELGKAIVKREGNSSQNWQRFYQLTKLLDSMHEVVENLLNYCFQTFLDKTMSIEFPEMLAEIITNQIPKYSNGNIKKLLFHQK

[3] = biological target: Dual specificity testis-specific protein kinase 1 (Homo sapiens) (UniProt Q15569); test: Selectivity interaction (Ambit KINOMEscan and KiNATiv profiling in Jurkat cells) EUB0000090b TESK1; assay type: cell-based; conditions: at 1 µM
Dual specificity testis-specific protein kinase 1 (Homo sapiens), sequence (Q15569 whole entry, looked up): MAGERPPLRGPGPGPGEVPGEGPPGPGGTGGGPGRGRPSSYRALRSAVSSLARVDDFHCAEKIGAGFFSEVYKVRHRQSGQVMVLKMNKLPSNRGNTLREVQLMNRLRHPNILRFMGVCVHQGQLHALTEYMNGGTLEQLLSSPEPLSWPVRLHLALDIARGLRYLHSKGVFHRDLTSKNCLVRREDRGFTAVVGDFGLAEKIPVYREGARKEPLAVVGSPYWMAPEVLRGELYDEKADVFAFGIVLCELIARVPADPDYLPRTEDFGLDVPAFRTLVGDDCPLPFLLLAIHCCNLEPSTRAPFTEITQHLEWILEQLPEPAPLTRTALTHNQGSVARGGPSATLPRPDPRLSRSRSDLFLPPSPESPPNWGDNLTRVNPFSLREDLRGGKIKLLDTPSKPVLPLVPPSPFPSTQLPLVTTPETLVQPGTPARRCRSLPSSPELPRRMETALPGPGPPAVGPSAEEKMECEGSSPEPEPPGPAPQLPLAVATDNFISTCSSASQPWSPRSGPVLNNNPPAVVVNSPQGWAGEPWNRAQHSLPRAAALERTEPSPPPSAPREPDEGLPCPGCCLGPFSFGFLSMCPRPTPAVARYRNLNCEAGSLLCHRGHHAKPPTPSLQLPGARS

Misshapen-like kinase 1 = Misshapen-like kinase 1 (Homo sapiens, UniProt Q8N4C8); test: Selectivity interaction (KinomeScan (DiscoverX)) EUB0000618a MINK1; conditions: at 10 µM
[4] = biological target: Cyclin-dependent kinase 11B (Homo sapiens) (UniProt P21127); test: Selectivity interaction (KinomeScan (DiscoverX)) EUB0001619a CDK11B; conditions: at 1 µM
Cyclin-dependent kinase 11B (Homo sapiens), sequence (P21127 whole entry): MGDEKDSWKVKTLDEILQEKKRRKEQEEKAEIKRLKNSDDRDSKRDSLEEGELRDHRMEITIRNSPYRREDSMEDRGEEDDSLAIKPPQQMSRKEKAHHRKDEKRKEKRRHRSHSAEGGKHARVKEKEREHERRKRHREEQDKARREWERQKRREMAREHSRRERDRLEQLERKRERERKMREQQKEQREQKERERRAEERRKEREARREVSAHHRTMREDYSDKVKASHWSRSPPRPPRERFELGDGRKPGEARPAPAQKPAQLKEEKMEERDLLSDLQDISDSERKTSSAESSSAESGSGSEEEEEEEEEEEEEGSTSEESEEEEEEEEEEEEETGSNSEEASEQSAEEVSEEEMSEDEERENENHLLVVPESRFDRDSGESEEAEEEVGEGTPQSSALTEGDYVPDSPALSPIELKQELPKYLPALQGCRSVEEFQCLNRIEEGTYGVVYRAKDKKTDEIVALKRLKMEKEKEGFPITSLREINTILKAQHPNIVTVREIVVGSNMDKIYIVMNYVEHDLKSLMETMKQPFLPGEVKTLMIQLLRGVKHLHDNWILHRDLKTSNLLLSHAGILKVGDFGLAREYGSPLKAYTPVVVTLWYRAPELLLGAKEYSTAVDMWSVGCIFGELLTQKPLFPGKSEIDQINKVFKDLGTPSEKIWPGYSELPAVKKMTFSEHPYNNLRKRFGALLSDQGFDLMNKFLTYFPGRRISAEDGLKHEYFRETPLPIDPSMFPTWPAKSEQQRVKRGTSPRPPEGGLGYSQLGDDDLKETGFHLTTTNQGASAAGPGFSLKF

[5] = biological target: T1, Serine/threonine-protein kinase PLK4 (Homo sapiens) (UniProt O00444); test: Selectivity interaction (Kinase panel (DSF assay)) EUB0001558a PLK4
T1 sequence (whole entry): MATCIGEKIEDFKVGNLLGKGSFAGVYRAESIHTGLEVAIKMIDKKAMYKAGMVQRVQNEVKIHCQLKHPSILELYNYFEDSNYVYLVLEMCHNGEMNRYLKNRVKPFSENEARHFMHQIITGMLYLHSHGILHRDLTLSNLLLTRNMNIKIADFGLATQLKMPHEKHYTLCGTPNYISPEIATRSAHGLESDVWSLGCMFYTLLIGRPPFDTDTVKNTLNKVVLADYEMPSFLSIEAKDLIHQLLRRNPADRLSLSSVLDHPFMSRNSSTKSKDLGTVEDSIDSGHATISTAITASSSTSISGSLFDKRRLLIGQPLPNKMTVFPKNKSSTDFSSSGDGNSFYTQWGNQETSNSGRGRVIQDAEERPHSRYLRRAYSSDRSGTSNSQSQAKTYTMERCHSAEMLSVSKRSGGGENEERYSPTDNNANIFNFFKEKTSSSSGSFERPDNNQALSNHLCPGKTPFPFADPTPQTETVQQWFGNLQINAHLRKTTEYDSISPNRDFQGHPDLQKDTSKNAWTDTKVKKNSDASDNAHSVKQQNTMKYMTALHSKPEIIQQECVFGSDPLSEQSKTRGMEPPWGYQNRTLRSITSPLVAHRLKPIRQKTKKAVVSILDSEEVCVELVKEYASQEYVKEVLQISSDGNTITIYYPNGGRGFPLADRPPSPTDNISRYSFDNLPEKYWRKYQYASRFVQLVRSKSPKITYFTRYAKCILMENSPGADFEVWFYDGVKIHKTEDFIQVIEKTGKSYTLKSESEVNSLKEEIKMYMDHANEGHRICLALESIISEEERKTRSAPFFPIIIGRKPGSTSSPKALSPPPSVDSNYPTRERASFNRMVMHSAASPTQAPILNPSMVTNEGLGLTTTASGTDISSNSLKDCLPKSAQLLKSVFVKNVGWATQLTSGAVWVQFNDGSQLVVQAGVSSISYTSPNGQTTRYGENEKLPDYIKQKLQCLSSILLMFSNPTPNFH

[6] = biological target: BDNF/NT-3 growth factors receptor (Homo sapiens) (UniProt Q16620); test: Selectivity interaction (Upstate Kinase Profiler service (Millipore)) EUB0000056c NTRK2; conditions: at 1 µM
BDNF/NT-3 growth factors receptor (Homo sapiens), sequence (Q16620 32-822 limits assumed): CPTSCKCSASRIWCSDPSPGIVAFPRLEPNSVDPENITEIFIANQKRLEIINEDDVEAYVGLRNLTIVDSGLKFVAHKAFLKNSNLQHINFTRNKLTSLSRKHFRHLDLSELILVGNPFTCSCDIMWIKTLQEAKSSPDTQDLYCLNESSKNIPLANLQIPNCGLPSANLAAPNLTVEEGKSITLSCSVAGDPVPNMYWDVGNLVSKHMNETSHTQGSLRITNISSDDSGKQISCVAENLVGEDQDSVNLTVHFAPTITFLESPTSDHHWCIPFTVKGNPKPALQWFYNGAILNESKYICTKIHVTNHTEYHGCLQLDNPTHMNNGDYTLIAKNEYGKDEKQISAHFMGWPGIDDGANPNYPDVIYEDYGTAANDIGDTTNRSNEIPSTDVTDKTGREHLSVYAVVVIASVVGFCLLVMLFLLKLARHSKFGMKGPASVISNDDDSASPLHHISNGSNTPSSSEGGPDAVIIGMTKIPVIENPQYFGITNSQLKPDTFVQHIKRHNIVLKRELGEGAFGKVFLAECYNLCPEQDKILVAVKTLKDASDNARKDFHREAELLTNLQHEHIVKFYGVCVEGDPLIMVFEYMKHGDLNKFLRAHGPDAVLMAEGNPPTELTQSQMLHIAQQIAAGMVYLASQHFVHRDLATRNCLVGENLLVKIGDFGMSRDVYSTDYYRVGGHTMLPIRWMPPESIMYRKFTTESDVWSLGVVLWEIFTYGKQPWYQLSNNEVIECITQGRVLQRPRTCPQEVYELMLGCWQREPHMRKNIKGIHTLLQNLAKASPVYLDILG

[7] = biological target: T2, Protein kinase C iota type (Homo sapiens) (UniProt P41743); test: Selectivity interaction (ActivX KiNativ screen (kinase selectivity in THP-1 cell lysates)) EUB0000639a PRKCI; assay type: subcellular; conditions: lysate, at 0.04 µM
T2 sequence (whole entry): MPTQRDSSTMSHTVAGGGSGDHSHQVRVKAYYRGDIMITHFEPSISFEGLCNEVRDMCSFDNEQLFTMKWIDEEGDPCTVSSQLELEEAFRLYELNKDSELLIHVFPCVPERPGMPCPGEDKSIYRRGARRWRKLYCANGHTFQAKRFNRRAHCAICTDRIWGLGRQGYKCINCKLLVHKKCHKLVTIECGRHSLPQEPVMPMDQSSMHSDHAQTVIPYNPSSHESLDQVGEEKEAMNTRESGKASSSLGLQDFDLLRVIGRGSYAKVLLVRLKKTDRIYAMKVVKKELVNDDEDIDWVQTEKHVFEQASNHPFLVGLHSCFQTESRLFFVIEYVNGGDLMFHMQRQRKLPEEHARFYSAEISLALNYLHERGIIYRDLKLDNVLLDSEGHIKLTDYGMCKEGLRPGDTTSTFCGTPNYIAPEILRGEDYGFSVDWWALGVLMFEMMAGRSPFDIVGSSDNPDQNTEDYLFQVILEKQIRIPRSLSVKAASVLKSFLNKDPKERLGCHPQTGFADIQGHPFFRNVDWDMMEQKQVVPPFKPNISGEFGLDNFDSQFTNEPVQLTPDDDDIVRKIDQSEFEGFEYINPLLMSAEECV

[8] = biological target: T3, Serine/threonine-protein kinase Sgk3 (Homo sapiens) (UniProt Q96BR1); test: Selectivity interaction (Kinase panel (Z-LYTE Assay)) EUB0001632a SGK3; conditions: at 10 µM
T3 sequence (whole entry): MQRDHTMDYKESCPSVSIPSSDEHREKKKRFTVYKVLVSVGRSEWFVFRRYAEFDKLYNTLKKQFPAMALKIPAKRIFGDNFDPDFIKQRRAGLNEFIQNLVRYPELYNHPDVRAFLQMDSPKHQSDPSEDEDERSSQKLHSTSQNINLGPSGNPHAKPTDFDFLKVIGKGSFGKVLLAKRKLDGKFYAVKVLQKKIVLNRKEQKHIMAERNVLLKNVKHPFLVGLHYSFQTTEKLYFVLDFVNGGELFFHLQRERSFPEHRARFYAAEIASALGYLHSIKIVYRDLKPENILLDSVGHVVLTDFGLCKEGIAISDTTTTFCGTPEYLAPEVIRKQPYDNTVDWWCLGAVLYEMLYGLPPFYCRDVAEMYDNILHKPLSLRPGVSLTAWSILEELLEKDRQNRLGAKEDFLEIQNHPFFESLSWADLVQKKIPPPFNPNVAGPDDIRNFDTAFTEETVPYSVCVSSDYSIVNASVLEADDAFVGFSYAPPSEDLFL

Tyrosine-protein kinase Fer (Homo sapiens), sequence (P16591 whole entry, looked up): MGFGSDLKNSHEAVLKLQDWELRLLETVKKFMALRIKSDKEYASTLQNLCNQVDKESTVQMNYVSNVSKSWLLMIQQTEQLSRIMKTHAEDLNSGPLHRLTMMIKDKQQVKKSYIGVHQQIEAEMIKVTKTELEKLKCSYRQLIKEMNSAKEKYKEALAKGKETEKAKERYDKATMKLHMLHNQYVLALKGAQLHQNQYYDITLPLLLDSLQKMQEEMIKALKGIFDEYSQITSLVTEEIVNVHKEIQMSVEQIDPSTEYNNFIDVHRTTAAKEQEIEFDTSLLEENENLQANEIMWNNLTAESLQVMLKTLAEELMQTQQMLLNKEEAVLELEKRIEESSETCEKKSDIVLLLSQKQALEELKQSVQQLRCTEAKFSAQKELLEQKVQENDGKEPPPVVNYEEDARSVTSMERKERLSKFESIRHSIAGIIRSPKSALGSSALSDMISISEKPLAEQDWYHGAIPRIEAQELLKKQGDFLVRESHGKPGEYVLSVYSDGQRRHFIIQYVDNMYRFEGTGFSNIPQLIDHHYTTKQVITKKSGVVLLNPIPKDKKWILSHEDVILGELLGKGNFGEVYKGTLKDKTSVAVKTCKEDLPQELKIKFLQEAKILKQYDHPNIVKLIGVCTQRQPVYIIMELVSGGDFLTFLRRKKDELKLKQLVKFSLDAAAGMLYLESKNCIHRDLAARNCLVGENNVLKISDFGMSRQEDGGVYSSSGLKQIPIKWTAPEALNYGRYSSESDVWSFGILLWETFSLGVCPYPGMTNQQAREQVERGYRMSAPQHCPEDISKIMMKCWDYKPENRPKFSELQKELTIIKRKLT

% of inhibition [1]: 93%
Structure (SMILES): CCc1cc(Nc2nccc(-c3c(-c4ccc(OC)c(C(=O)Nc5c(F)cccc5F)c4)nc4ccccn34)n2)c(OC)cc1N1CCC(N2CCN(S(C)(=O)=O)CC2)CC1

% of control [2]: 94%
Structure (SMILES): CC(=O)c1cc(-c2ccccc2OCC2CC2)c2ncccn12

Structure (SMILES): CN(C)C/C=C/C(=O)Nc1ccc(C(=O)N2CCCC(Nc3ncc(Cl)c(-c4c[nH]c5ccccc45)n3)C2)cc1 (centres undefined)
% of control [3]: 86%

Structure (SMILES): O[C@H]1CC[C@H](Nc2ncc3nc(Nc4c(F)cc(F)cc4F)n([C@H]4CCOC4)c3n2)CC1
% of control (Misshapen-like kinase 1): 71%

Structure (SMILES): N#Cc1cccc(-c2c[nH]c3ncnc(N4CCOCC4)c23)c1
% of control [4]: 100%

Structure (SMILES): CC(C)(O)[C@H](F)CN1Cc2cc(NC(=O)c3cnn4cccnc34)c(N3CCOCC3)cc2C1=O
dTM [5]: 5.2 K

% of inhibition [6]: -8%
Structure (SMILES): Cc1ccc(-c2ccc3c(ccc4sc5c(c43)NC[C@@H](C)NC5=O)n2)cn1

% of inhibition [7]: -0.9%
Structure (SMILES): CC[C@@H]1[C@H](F)C(=O)N[C@@H]1COc1nccc2cc(C(N)=O)c(OC)cc12 [ZIMLOVISERTIB]

% of control [8]: 0.168%
Structure (SMILES): Cn1cc(-n2cnc3c(NCc4nc5cc(Cl)c(Cl)cc5[nH]4)nc(N4CCOCC4)nc32)cn1
